Test results as given in patent US10760110B2, “Antibiotic testing and screening system” (priority 2017, dated 2020).
≈ marks a conversion by molar mass, not a printed value. Read-outs that look alike come from different tables or passages of the source.

Key:
Conditions in all cases: Klebsiella pneumoniae
[1] = test system: K. pneumoniae NVT1001 and its ΔompK35/36 and/or ΔramR mutants; experiment: Etest MIC, OmpK35/36 loss and AcrAB-TolC overexpression (ΔramR) strains (Table 6); type: cell-based, Klebsiella pneumoniae
Summary of the method: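 Ceftazidime and cefotaxime were tested by CLSI broth microdilution on the blaOXA-48 pACYC177 transformant of NVT1001, using CLSI 2017 breakpoints. Parent, porin-deleted (ΔompK35/36) and ΔramR strains were tested by Etest, with values between two-fold dilutions rounded up.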

[2] = test system: K. pneumoniae NVT1001 ΔramRΔompK35/36 mutant and its revertants; experiment: Etest MIC, ΔramRΔompK35/36 mutant and its revertants (Table 7); type: cell-based
[3] = test system: K. pneumoniae NVT1001 strains with carbapenemase plasmids; experiment: Etest MIC of β-lactams, OmpK35/36 loss, ΔramR and/or carbapenemase (Table 9); type: cell-based, Klebsiella pneumoniae
Summary of the method: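 Cloned resistance genes in pACYC177 or pACYC184 were electroporated into K. pneumoniae NVT1001. MICs were determined by Etest and rounded up to the next two-fold value. Ceftazidime and cefotaxime against the blaOXA-48 construct were also tested by CLSI broth microdilution, with breakpoints from CLSI 2017 (cephalothin CLSI 2015, moxifloxacin EUCAST 2017).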

CC(=O)OCC1=C(C(=O)O)N2C(=O)[C@@H](NC(=O)Cc3cccs3)[C@H]2SC1 [Cephalothin]
MIC ([1]; WT, NVT1001, read-out: MIC): 8 µg/mL (≈ 20.2 µM) | MIC ([1]; Δ35, ΔompK35 mutant): 8 µg/mL (≈ 20.2 µM) | MIC ([1]; Δ35/36, ΔompK35/36 mutant): 256 µg/mL (≈ 646 µM) | MIC ([1]; Δ36, ΔompK36 mutant): 16 µg/mL (≈ 40.4 µM) | MIC ([1]; ΔramR mutant): 64 µg/mL (≈ 161 µM) | MIC ([1]; ΔramRΔ35, ΔramRΔompK35 mutant): 64 µg/mL (≈ 161 µM) | MIC ([1]; ΔramRΔ35/36, ΔramRΔompK35/36 mutant): > 256 µg/mL | MIC ([1]; ΔramRΔ36, ΔramRΔompK36 mutant): > 256 µg/mL | MIC ([2]; ΔramRΔompK35/36::ompK35/36 revertant): 64 µg/mL | MIC ([2]; ΔramRΔompK35/36::ompK35 revertant): > 256 µg/mL | MIC ([2]; ΔramRΔompK35/36::ompK36 revertant): 128 µg/mL | MIC ([2]; ΔramRΔompK35/36::ramR revertant): > 256 µg/mL | MIC ([2]; ΔramRΔompK35/36::ramR::ompK35/36 revertant): 8 µg/mL | MIC ([2]; ΔramRΔompK35/36::ramR::ompK35 revertant): 32 µg/mL | MIC ([2]; ΔramRΔompK35/36::ramR::ompK36 revertant): 8 µg/mL | MIC ([2]; ΔramRΔompK35/36 mutant): > 256 µg/mL | MIC ([3]; IMP-8 on pACYC177, WT (NVT1001), read-out: MIC): > 256 µg/mL | MIC ([3]; IMP-8 on pACYC177, Δ35 (ΔompK35 mutant)): > 256 µg/mL | MIC ([3]; IMP-8 on pACYC177, Δ35/36 (ΔompK35/36 mutant)): > 256 µg/mL | MIC ([3]; IMP-8 on pACYC177, Δ36 (ΔompK36 mutant)): > 256 µg/mL | MIC ([3]; IMP-8 on pACYC177, ΔramR mutant): > 256 µg/mL | MIC ([3]; IMP-8 on pACYC177, ΔramRΔ35 (ΔramRΔompK35 mutant)): > 256 µg/mL | MIC ([3]; IMP-8 on pACYC177, ΔramRΔ35/36 (ΔramRΔompK35/36 mutant)): > 256 µg/mL | MIC ([3]; IMP-8 on pACYC177, ΔramRΔ36 (ΔramRΔompK36 mutant)): > 256 µg/mL | MIC ([3]; KPC-2 on pACYC177, WT (NVT1001), read-out: MIC): > 256 µg/mL | MIC ([3]; KPC-2 on pACYC177, Δ35 (ΔompK35 mutant)): > 256 µg/mL | MIC ([3]; KPC-2 on pACYC177, Δ35/36 (ΔompK35/36 mutant)): > 256 µg/mL | MIC ([3]; KPC-2 on pACYC177, Δ36 (ΔompK36 mutant)): > 256 µg/mL | MIC ([3]; KPC-2 on pACYC177, ΔramR mutant): > 256 µg/mL | MIC ([3]; KPC-2 on pACYC177, ΔramRΔ35 (ΔramRΔompK35 mutant)): > 256 µg/mL | MIC ([3]; KPC-2 on pACYC177, ΔramRΔ35/36 (ΔramRΔompK35/36 mutant)): > 256 µg/mL | MIC ([3]; KPC-2 on pACYC177, ΔramRΔ36 (ΔramRΔompK36 mutant)): > 256 µg/mL | MIC ([3]; KPC-3 on pACYC177, WT (NVT1001), read-out: MIC): > 256 µg/mL | MIC ([3]; KPC-3 on pACYC177, Δ35 (ΔompK35 mutant)): > 256 µg/mL | MIC ([3]; KPC-3 on pACYC177, Δ35/36 (ΔompK35/36 mutant)): > 256 µg/mL | MIC ([3]; KPC-3 on pACYC177, Δ36 (ΔompK36 mutant)): > 256 µg/mL | MIC ([3]; KPC-3 on pACYC177, ΔramR mutant): > 256 µg/mL | MIC ([3]; KPC-3 on pACYC177, ΔramRΔ35 (ΔramRΔompK35 mutant)): > 256 µg/mL | MIC ([3]; KPC-3 on pACYC177, ΔramRΔ35/36 (ΔramRΔompK35/36 mutant)): > 256 µg/mL | MIC ([3]; KPC-3 on pACYC177, ΔramRΔ36 (ΔramRΔompK36 mutant)): > 256 µg/mL | MIC ([3]; NDM-1 on pACYC177, WT (NVT1001), read-out: MIC): > 256 µg/mL | MIC ([3]; NDM-1 on pACYC177, Δ35 (ΔompK35 mutant)): > 256 µg/mL | MIC ([3]; NDM-1 on pACYC177, Δ35/36 (ΔompK35/36 mutant)): > 256 µg/mL | MIC ([3]; NDM-1 on pACYC177, Δ36 (ΔompK36 mutant)): > 256 µg/mL | MIC ([3]; NDM-1 on pACYC177, ΔramR mutant): > 256 µg/mL | MIC ([3]; NDM-1 on pACYC177, ΔramRΔ35 (ΔramRΔompK35 mutant)): > 256 µg/mL | MIC ([3]; NDM-1 on pACYC177, ΔramRΔ35/36 (ΔramRΔompK35/36 mutant)): > 256 µg/mL | MIC ([3]; NDM-1 on pACYC177, ΔramRΔ36 (ΔramRΔompK36 mutant)): > 256 µg/mL | MIC ([3]; OXA-48 on pACYC177, WT (NVT1001), read-out: MIC): 256 µg/mL | MIC ([3]; OXA-48 on pACYC177, Δ35 (ΔompK35 mutant)): 256 µg/mL | MIC ([3]; OXA-48 on pACYC177, Δ35/36 (ΔompK35/36 mutant)): > 256 µg/mL | MIC ([3]; OXA-48 on pACYC177, Δ36 (ΔompK36 mutant)): > 256 µg/mL | MIC ([3]; OXA-48 on pACYC177, ΔramR mutant): > 256 µg/mL | MIC ([3]; OXA-48 on pACYC177, ΔramRΔ35 (ΔramRΔompK35 mutant)): > 256 µg/mL | MIC ([3]; OXA-48 on pACYC177, ΔramRΔ35/36 (ΔramRΔompK35/36 mutant)): > 256 µg/mL | MIC ([3]; OXA-48 on pACYC177, ΔramRΔ36 (ΔramRΔompK36 mutant)): > 256 µg/mL | MIC ([3]; VIM-1 on pACYC177, WT (NVT1001), read-out: MIC): > 256 µg/mL | MIC ([3]; VIM-1 on pACYC177, Δ35 (ΔompK35 mutant)): > 256 µg/mL | MIC ([3]; VIM-1 on pACYC177, Δ35/36 (ΔompK35/36 mutant)): > 256 µg/mL | MIC ([3]; VIM-1 on pACYC177, Δ36 (ΔompK36 mutant)): > 256 µg/mL | MIC ([3]; VIM-1 on pACYC177, ΔramR mutant): > 256 µg/mL | MIC ([3]; VIM-1 on pACYC177, ΔramRΔ35 (ΔramRΔompK35 mutant)): > 256 µg/mL | MIC ([3]; VIM-1 on pACYC177, ΔramRΔ35/36 (ΔramRΔompK35/36 mutant)): > 256 µg/mL | MIC ([3]; VIM-1 on pACYC177, ΔramRΔ36 (ΔramRΔompK36 mutant)): > 256 µg/mL | MIC ([3]; no supplemental plasmid, WT (NVT1001), read-out: MIC): 8 µg/mL | MIC ([3]; no supplemental plasmid, Δ35 (ΔompK35 mutant)): 8 µg/mL | MIC ([3]; no supplemental plasmid, Δ35/36 (ΔompK35/36 mutant)): 256 µg/mL | MIC ([3]; no supplemental plasmid, Δ36 (ΔompK36 mutant)): 16 µg/mL | MIC ([3]; no supplemental plasmid, ΔramR mutant): 64 µg/mL | MIC ([3]; no supplemental plasmid, ΔramRΔ35 (ΔramRΔompK35 mutant)): 64 µg/mL | MIC ([3]; no supplemental plasmid, ΔramRΔ35/36 (ΔramRΔompK35/36 mutant)): > 256 µg/mL | MIC ([3]; no supplemental plasmid, ΔramRΔ36 (ΔramRΔompK36 mutant)): > 256 µg/mL
